Where two headings read alike, the source gives them in different places. Where a SMILES comes first, the peptide text is derived from it. Side-chain parts run from the residue outwards. [ ]: non-standard residue; d: D form. The star is where a group is joined. DOTA = O=C(O)CN1CCN(CC(=O)O)CCN(CC(=O)*)CCN(CC(=O)O)CC1; 2Nal = N[C@@H](Cc1ccc2ccccc2c1)C(=O)O; dNMeOrn = CN[C@H](CCCN)C(=O)O; 4Abz = Nc1ccc(C(=O)O)cc1
Experiment: Biodistribution in Daudi xenograft bearing mice
Format: in vivo, mouse
Conditions: female, CB-17 SCID, mouse, iv, total radioactivity; for tissue uptake at 6 h: 6h p.i.; for tissue uptake at 6 h / tissue uptake at 48 h: i.v., n=4-5; for tissue uptake at 6 h / tissue uptake at 48 h / tissue to tissue ratio at 48 h: means ± SD; for tissue uptake at 48 h / tissue to tissue ratio at 48 h: 48h p.i.; for tissue uptake at 1 h: 1h p.i., coinjection of 50 µg AMD3100/animal, n=1; for tissue to tissue ratio at 48 h: n=4-5 animals
How it was run: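 Female CB-17 SCID mice with Daudi xenografts (n=4-5) received 5-10 MBq (0.08-0.11 nmol) ^68Ga- or ^177Lu-labelled ligand i.v.; blocking by coinjected 50 µg AMD3100. Organs counted by γ-counter at 1, 6 and 48 h p.i.; %ID/g (mean ± SD).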

[1] = adrenals, read-out: Biodistribution adrenals
[2] = blood, read-out: Biodistribution blood
[3] = colon, read-out: Biodistribution colon
[4] = femur, read-out: Biodistribution femur
[5] = heart, read-out: Biodistribution heart
[6] = kidney, read-out: Biodistribution kidney
[7] = liver, read-out: Biodistribution liver
[8] = lung, read-out: Biodistribution lung
[9] = muscle, read-out: Biodistribution muscle
[10] = pancreas, read-out: Biodistribution pancreas
[11] = small intestine, read-out: Biodistribution small intestine
[12] = spleen, read-out: Biodistribution spleen
[13] = stomach, read-out: Biodistribution stomach
[14] = tumor (Daudi xenograft), read-out: Biodistribution tumor (Daudi xenograft)

tissue uptake at 6 h [1]: 0.51 ± 0.12 %ID/g
tissue uptake at 48 h [1]: 0.33 ± 0.08 %ID/g
tissue uptake at 1 h (adrenals, with AMD3100, 50 µg per animal, coinjected (CXCR4 competition), read-out: Biodistribution adrenals, + AMD3100): 1.22 %ID/g
tissue uptake at 6 h [2]: 0.05 ± 0.01 %ID/g
tissue uptake at 48 h [2]: 0.01 %ID/g
tissue uptake at 1 h (blood, with AMD3100, 50 µg per animal, coinjected (CXCR4 competition), read-out: Biodistribution blood, + AMD3100): 1.9 %ID/g
tissue uptake at 6 h [3]: 0.65 ± 0.3 %ID/g
tissue uptake at 48 h [3]: 0.44 ± 0.22 %ID/g
tissue uptake at 1 h (colon, with AMD3100, 50 µg per animal, coinjected (CXCR4 competition), read-out: Biodistribution colon, + AMD3100): 0.74 %ID/g
tissue uptake at 6 h [4]: 0.3 ± 0.05 %ID/g
tissue uptake at 48 h [4]: 0.29 ± 0.05 %ID/g
tissue uptake at 1 h (femur, with AMD3100, 50 µg per animal, coinjected (CXCR4 competition), read-out: Biodistribution femur, + AMD3100): 0.74 %ID/g
tissue uptake at 1 h (heart, read-out: Biodistribution heart, + AMD3100): 1.07 %ID/g
tissue uptake at 6 h [5]: 0.13 ± 0.02 %ID/g
tissue uptake at 48 h [5]: 0.08 ± 0.01 %ID/g
tissue uptake at 6 h [6]: 7.1 ± 2.06 %ID/g
tissue uptake at 48 h [6]: 3.05 ± 0.15 %ID/g
tissue uptake at 1 h (kidney, with AMD3100, 50 µg per animal, coinjected (CXCR4 competition), read-out: Biodistribution kidney, + AMD3100): 10.3 %ID/g
tissue uptake at 1 h (liver, read-out: Biodistribution liver, + AMD3100): 5.46 %ID/g
tissue uptake at 6 h [7]: 11.3 ± 2.83 %ID/g
tissue uptake at 48 h [7]: 8.99 ± 1.62 %ID/g
tissue uptake at 1 h (lung, read-out: Biodistribution lung, + AMD3100): 3.34 %ID/g
tissue uptake at 6 h [8]: 0.27 ± 0.06 %ID/g
tissue uptake at 48 h [8]: 0.19 ± 0.08 %ID/g
tissue uptake at 6 h [9]: 0.04 ± 0.01 %ID/g
tissue uptake at 48 h [9]: 0.02 %ID/g
tissue uptake at 1 h (muscle, with AMD3100, 50 µg per animal, coinjected (CXCR4 competition), read-out: Biodistribution muscle, + AMD3100): 0.38 %ID/g
tissue uptake at 6 h [10]: 0.08 ± 0.02 %ID/g
tissue uptake at 48 h [10]: 0.07 ± 0.01 %ID/g
tissue uptake at 1 h (pancreas, with AMD3100, 50 µg per animal, coinjected (CXCR4 competition), read-out: Biodistribution pancreas, + AMD3100): 0.61 %ID/g
tissue uptake at 6 h [11]: 0.3 ± 0.06 %ID/g
tissue uptake at 48 h [11]: 0.16 ± 0.11 %ID/g
tissue uptake at 1 h (small intestine, with AMD3100, 50 µg per animal, coinjected (CXCR4 competition), read-out: Biodistribution small intestine, + AMD3100): 1.36 %ID/g
tissue uptake at 6 h [12]: 1.41 ± 0.24 %ID/g
tissue uptake at 48 h [12]: 1.06 ± 0.33 %ID/g
tissue uptake at 1 h (spleen, with AMD3100, 50 µg per animal, coinjected (CXCR4 competition), read-out: Biodistribution spleen, + AMD3100): 1.11 %ID/g
tissue uptake at 6 h [13]: 0.25 ± 0.07 %ID/g
tissue uptake at 48 h [13]: 0.19 ± 0.13 %ID/g
tissue uptake at 1 h (stomach, with AMD3100, 50 µg per animal, coinjected (CXCR4 competition), read-out: Biodistribution stomach, + AMD3100): 2.46 %ID/g
tissue uptake at 6 h [14]: 13.6 ± 3.33 %ID/g
tissue uptake at 48 h [14]: 8.81 ± 0.99 %ID/g
tissue uptake at 1 h (tumor (Daudi xenograft), with AMD3100, 50 µg per animal, coinjected (CXCR4 competition), read-out: Biodistribution tumor, + AMD3100): 3.04 %ID/g
tissue to tissue ratio at 48 h (tumor / blood, read-out: Tumor/organ ratio t/blood): 949 ± 146
tissue to tissue ratio at 48 h (tumor / colon, read-out: Tumor/organ ratio t/colon): 20 ± 10
tissue to tissue ratio at 48 h (tumor / heart, read-out: Tumor/organ ratio t/heart): 111 ± 20
tissue to tissue ratio at 48 h (tumor / kidney, read-out: Tumor/organ ratio t/kidney): 2.9 ± 0.4
tissue to tissue ratio at 48 h (tumor / liver, read-out: Tumor/organ ratio t/liver): 1 ± 0.2
tissue to tissue ratio at 48 h (tumor / lung, read-out: Tumor/organ ratio t/lung): 47 ± 22
tissue to tissue ratio at 48 h (tumor / muscle, read-out: Tumor/organ ratio t/muscle): 413 ± 100
tissue to tissue ratio at 48 h (tumor / small intestine, read-out: Tumor/organ ratio t/small intestine): 55 ± 36
tissue to tissue ratio at 48 h (tumor / spleen, read-out: Tumor/organ ratio t/spleen): 8.3 ± 2.8
tissue to tissue ratio at 48 h (tumor / stomach, read-out: Tumor/organ ratio t/stomach): 46 ± 32
Compound: C[C@@H](NC(=O)[C@@H](CCCNC(=N)N)NC(=O)CN1CCN(CC(=O)O)CCN(CC(=O)O)CCN(CC(=O)O)CC1)C(=O)Nc1ccc(C(=O)NCCC[C@@H]2C(=O)N[C@@H](CCCNC(=N)N)C(=O)N[C@@H](Cc3ccc4ccccc4c3)C(=O)NCC(=O)N[C@H](Cc3ccc(O)cc3)C(=O)N2C)cc1 [[^177Lu]DOTA-r-a-ABA-CPCR4, metal not drawn] (cyclo([2Nal]G[dY][dNMeOrn]([4Abz-dA-dR-DOTA])R))
